Source: paper PMC5433425 (PeerJ, 2017)
Where “and” joins values, the source holds several entries; their conditions need not be identical. Equal entries are not always repeated. Where two headings read alike, the source gives them in different places. Peptide text beside a SMILES is read from it. * marks the point of attachment. βNA = c1ccc2cc(N*)ccc2c1

Assays:
E. coli AG100 [1] = assay: Membrane potential assay (BacLight, DiOC2(3)); details: 80 µM
[2] = test system: E. coli AG100tet (AcrAB overexpressing); assay: MIC, broth microdilution; assay type: cell-based, Escherichia coli; details: Escherichia coli
E. coli AG100tet [3] = assay: EtBr accumulation by real-time fluorometry; details: EtBr 2 µg/ml + inhibitor 80 µM
E. coli AG100A [4] = details: EtBr […] + inhibitor 20 µM
E. coli AG100tet [5] = assay: microbe, parasite or virus in culture; assay type: cell-based, Escherichia coli; details: for MIC: Escherichia coli, AG100TET
Protocol: The assays were performed in triplicate and the MIC value was given as result of at least two concordant values.

E. coli AG100A [6] = assay: microbe, parasite or virus in culture; assay type: cell-based, Escherichia coli; details: for MIC: Escherichia coli, AG100A
Protocol: The minimum inhibitory concentrations (MICs) were determined using the broth microdilution method according to the CLSI guidelines ([Clinical and Laboratory Standards Institute, 2014]). […] Two-fold serial dilutions of the compounds were made to achieve the following concentrations: 320 µM–40 µM. The MICs were determined as the lowest concentration at which no visible growth was observed after 18 h of incubation at 37 °C. The assays were performed in triplicate and the MIC value was given as result of at least two concordant values.

E. coli AG100 [7] = assay: EtBr efflux by real-time fluorometry; details: for EtBr fluorescence (Channel Cycling A.530/585hp): 80 µM
Protocol: Control tubes with only cells and cells with and without 0.4% glucose were included. The fluorescence was measured in a Rotor-Gene 3000 and the data was acquired every 30 s for 30 min at 37 °C. The efflux activity was quantified by comparing the fluorescence data obtained under conditions that promote efflux (presence of glucose and absence of efflux inhibitor) with the data from the control in which the bacteria are under conditions of no efflux (presence of an inhibitor and no energy source).

## NC(N)=NCCC[C@H](NC(=O)[C@@H](N)Cc1ccccc1)C(=O)Nc1ccc2ccccc2c1 [PAβN] (H-Phe-Arg-βNA)
E. coli AG100 [1]
  membrane depolarization: 14%
[2]
  MIC: > 200 µg/mL and > 385 µM
E. coli AG100tet [3]; cycle 1
  EtBr fluorescence: 11.1278
E. coli AG100tet [3]; cycle 2
  EtBr fluorescence: 12.695
E. coli AG100tet [3]; cycle 3
  EtBr fluorescence: 14.0098
E. coli AG100tet [3]; cycle 4
  EtBr fluorescence: 14.9916
E. coli AG100tet [3]; cycle 5
  EtBr fluorescence: 15.9316
E. coli AG100tet [3]; cycle 6
  EtBr fluorescence: 16.6928
E. coli AG100tet [3]; cycle 7
  EtBr fluorescence: 17.1135
E. coli AG100tet [3]; cycle 8
  EtBr fluorescence: 17.7313
E. coli AG100tet [3]; cycle 9
  EtBr fluorescence: 18.0085
E. coli AG100tet [3]; cycle 10
  EtBr fluorescence: 18.4427
E. coli AG100tet [3]; cycle 11
  EtBr fluorescence: 18.7463
E. coli AG100tet [3]; cycle 12
  EtBr fluorescence: 18.8264
E. coli AG100tet [3]; cycle 13
  EtBr fluorescence: 19.2404
E. coli AG100tet [3]; cycle 14
  EtBr fluorescence: 19.2594
E. coli AG100tet [3]; cycle 15
  EtBr fluorescence: 19.2787
E. coli AG100tet [3]; cycle 16
  EtBr fluorescence: 19.7369
E. coli AG100tet [3]; cycle 17
  EtBr fluorescence: 19.738
E. coli AG100tet [3]; cycle 18
  EtBr fluorescence: 20.2008
E. coli AG100tet [3]; cycle 19
  EtBr fluorescence: 19.7958
E. coli AG100tet [3]; cycle 20
  EtBr fluorescence: 20.1672
E. coli AG100tet [3]; cycle 21
  EtBr fluorescence: 20.6387
E. coli AG100tet [3]; cycle 22
  EtBr fluorescence: 20.6639
E. coli AG100tet [3]; cycle 23
  EtBr fluorescence: 21.3214
E. coli AG100tet [3]; cycle 24
  EtBr fluorescence: 21.3175
E. coli AG100tet [3]; cycle 25
  EtBr fluorescence: 21.5239
E. coli AG100tet [3]; cycle 26
  EtBr fluorescence: 21.9663
E. coli AG100tet [3]; cycle 27
  EtBr fluorescence: 22.3215
E. coli AG100tet [3]; cycle 28
  EtBr fluorescence: 22.6925
E. coli AG100tet [3]; cycle 29
  EtBr fluorescence: 23.1641
E. coli AG100tet [3]; cycle 30
  EtBr fluorescence: 23.4062
E. coli AG100A [4]; cycle 1
  EtBr fluorescence: 2.806
E. coli AG100A [4]; cycle 2
  EtBr fluorescence: 3.199
E. coli AG100A [4]; cycle 3
  EtBr fluorescence: 3.493
E. coli AG100A [4]; cycle 4
  EtBr fluorescence: 3.706
E. coli AG100A [4]; cycle 5
  EtBr fluorescence: 3.997
E. coli AG100A [4]; cycle 6
  EtBr fluorescence: 4.263
E. coli AG100A [4]; cycle 7
  EtBr fluorescence: 4.462
E. coli AG100A [4]; cycle 8
  EtBr fluorescence: 4.698
E. coli AG100A [4]; cycle 9
  EtBr fluorescence: 5.01
E. coli AG100A [4]; cycle 10
  EtBr fluorescence: 5.162
E. coli AG100A [4]; cycle 11
  EtBr fluorescence: 5.32
E. coli AG100A [4]; cycle 12
  EtBr fluorescence: 5.607
E. coli AG100A [4]; cycle 13
  EtBr fluorescence: 5.848
E. coli AG100A [4]; cycle 14
  EtBr fluorescence: 6.013
E. coli AG100A [4]; cycle 15
  EtBr fluorescence: 6.228
E. coli AG100A [4]; cycle 16
  EtBr fluorescence: 6.479
E. coli AG100A [4]; cycle 17
  EtBr fluorescence: 6.607
E. coli AG100A [4]; cycle 18
  EtBr fluorescence: 6.927
E. coli AG100A [4]; cycle 19
  EtBr fluorescence: 6.923
E. coli AG100A [4]; cycle 20
  EtBr fluorescence: 7.2698
E. coli AG100A [4]; cycle 21
  EtBr fluorescence: 7.508
E. coli AG100A [4]; cycle 22
  EtBr fluorescence: 7.627
E. coli AG100A [4]; cycle 23
  EtBr fluorescence: 7.913
E. coli AG100A [4]; cycle 24
  EtBr fluorescence: 7.996
E. coli AG100A [4]; cycle 25
  EtBr fluorescence: 8.302
E. coli AG100A [4]; cycle 26
  EtBr fluorescence: 8.33
E. coli AG100A [4]; cycle 27
  EtBr fluorescence: 8.55
E. coli AG100A [4]; cycle 28
  EtBr fluorescence: 8.862
E. coli AG100A [4]; cycle 29
  EtBr fluorescence: 8.894
E. coli AG100A [4]; cycle 30
  EtBr fluorescence: 9.1148
E. coli AG100tet [5]; AG100tet (AcrAB-overexpressing strain)
  decrease in EtBr MIC: 128 fold
E. coli AG100tet [5]; read-out: MIC of EtBr in presence of the efflux inhibitor, AG100tet, inhibitor 40 μM
  MIC: 256 µg/mL
E. coli AG100tet [5]; read-out: MIC of EtBr in presence of the efflux inhibitor, AG100tet, inhibitor 80 μM
  MIC: 128 µg/mL
E. coli AG100tet [5]; read-out: MIC of EtBr in presence of the efflux inhibitor, AG100tet, inhibitor 160 μM
  MIC: 4 µg/mL
E. coli AG100tet [5]; read-out: MIC of OFX in presence of the efflux inhibitor, AG100tet, inhibitor 40 μM
  MIC: 0.06 µg/mL
E. coli AG100tet [5]; read-out: MIC of OFX in presence of the efflux inhibitor, AG100tet, inhibitor 80 μM
  MIC: 0.03 µg/mL
E. coli AG100tet [5]; read-out: MIC of OFX in presence of the efflux inhibitor, AG100tet, inhibitor 160 μM
  MIC: 0.03 µg/mL
E. coli AG100tet [5]; read-out: MIC of OXA in presence of the efflux inhibitor, AG100tet, inhibitor 40 μM
  MIC: 256 µg/mL
E. coli AG100tet [5]; read-out: MIC of OXA in presence of the efflux inhibitor, AG100tet, inhibitor 80 μM
  MIC: 256 µg/mL
E. coli AG100tet [5]; read-out: MIC of OXA in presence of the efflux inhibitor, AG100tet, inhibitor 160 μM
  MIC: 64 µg/mL
E. coli AG100tet [5]; read-out: MIC of TET in presence of the efflux inhibitor, AG100tet, inhibitor 40 μM
  MIC: 8 µg/mL
E. coli AG100tet [5]; read-out: MIC of TET in presence of the efflux inhibitor, AG100tet, inhibitor 80 μM
  MIC: 4 µg/mL
E. coli AG100tet [5]; read-out: MIC of TET in presence of the efflux inhibitor, AG100tet, inhibitor 160 μM
  MIC: 2 µg/mL
E. coli AG100A [6]; AG100A (pump-deficient strain)
  effect on OFX and EtBr MICs: no effect
  reduction in OXA MIC: 4 fold
  reduction in TET MIC: 16 fold
E. coli AG100A [6]; read-out: MIC of EtBr in presence of the efflux inhibitor
  MIC: 3.12 µg/mL
E. coli AG100A [6]; read-out: MIC of OFX in presence of the efflux inhibitor
  MIC: 0.03 µg/mL
E. coli AG100A [6]; read-out: MIC of OXA in presence of the efflux inhibitor
  MIC: 0.25 µg/mL
E. coli AG100A [6]; read-out: MIC of TET in presence of the efflux inhibitor
  MIC: 0.03 µg/mL
E. coli AG100 [7]; AG100, AG100A and AG100tet (Fig. 2), 80 μM (20 μM for AG100A), glucose, 37 °C
  inhibition of EtBr efflux: to a lesser extent
E. coli AG100 [7]; cycle 1, + glucose
  EtBr fluorescence (Channel Cycling A.530/585hp): 2.175
E. coli AG100 [7]; cycle 1, without glucose
  EtBr fluorescence (Channel Cycling A.530/585hp): 1.796
E. coli AG100 [7]; cycle 2, + glucose
  EtBr fluorescence (Channel Cycling A.530/585hp): 1.889
E. coli AG100 [7]; cycle 2, without glucose
  EtBr fluorescence (Channel Cycling A.530/585hp): 1.72
E. coli AG100 [7]; cycle 3, + glucose
  EtBr fluorescence (Channel Cycling A.530/585hp): 1.756
E. coli AG100 [7]; cycle 3, without glucose
  EtBr fluorescence (Channel Cycling A.530/585hp): 1.635
E. coli AG100 [7]; cycle 4, without glucose
  EtBr fluorescence (Channel Cycling A.530/585hp): 1.556
E. coli AG100 [7]; cycle 5, without glucose
  EtBr fluorescence (Channel Cycling A.530/585hp): 1.502
E. coli AG100 [7]; cycle 6, without glucose
  EtBr fluorescence (Channel Cycling A.530/585hp): 1.4519
E. coli AG100 [7]; cycle 7, without glucose
  EtBr fluorescence (Channel Cycling A.530/585hp): 1.472
